Measurements from patent US8673850B2, “PCSK9 inhibitors and methods of use thereof” (Institut de Recherches Cliniques de Montreal, priority 2008, dated 2014).

Columns and labels:
[1] = tested on: LDLR; assay: LDLR Western blot of transfected HEK293 cells; format: cell-based, human; conditions: HEK293 cells (negligible PCSK9), with or without p11
Protocol: (§1) HepG2, HuH7, COS-1, BSC40 and HEK293 cell were grown in Dulbecco's modified Eagle's medium (DMEM) with 10% fetal bovine serum (FBS; Gibco), whereas CHO-K1 and CHO-K1 mutant Pgsd-677 cells that lack heparan sulfate proteoglycans^26 were grown in Ham's F12:DMEM (50:50) media with 10% FBS. Y1 mouse adrenal cells were grown in F12K medium with 15% horse serum and 2.5% FBS. All cells were maintained at 37° C. under 5% CO2. At 80-90% confluence, HuH7 and CHO-K1 cells were transiently transfected with Lipofectamine™ 2000 (Invitrogen), HEK293 cells were transfected with Effectene™ (Qiagen) and HepG2 cells were transfected with Fugene™ HD (Roche). […] For analysis of the various AnxA2 mutants in HEK293 cells, 24 h post-transfection, the cells were washed and then incubated for another 24 h in complete medium containing 50 μM of the proteasome inhibitor ALLN (Calbiochem). Stable transfectants of shRNA-AnxA2 were obtained in HuH7 cells following puromycin selection.
(§2) Western blotting experiments were made on samples that were reduced in Laemmli buffer, heated and resolved on 8% glycine SDS-PAGE gels. Separated proteins were then electro-transferred onto nitrocellulose, and probed with HRP-conjugated anti-V5 or anti-HA tags or with primary antibodies. […] Quantitation of band intensity was done with the ImageJ™ software version 1.37 (Wayne Rasband, National Institutes of Health, Bethesda, Md.).

[2] = tested on: PCSK9-enhanced LDLR degradation; assay: LDLR Western blot of CHO-K1 cells co-transfected with PCSK9 and AnxA2; format: cell-based; conditions: PCSK9 alone reduced LDLR by ~30%
Protocol: as §1, §2

[3] = tested on: LDLR; assay: Cell surface LDLR immunofluorescence of transfected HepG2 cells; format: cell-based, human
Protocol: (§3) For immuno-cytochemistry, cells were plated on glass bottom culture dishes (MatTek) and then transfected the following day. Twenty-four hours post-transfection, the cells were washed with DMEM, incubated for an additional 20 h without serum and then washed 3 times with PBS. Cell surface labelings were made under non-permeabilizing conditions by fixation with 3.7% formaldehyde for 10 min at room temperature. Cells were then washed in PBS, incubated for 5 min in 150 mM glycine, washed once in PBS and incubated for 30 min in 1% bovine serum albumin in PBS. Cells were incubated overnight at 4° C. with primary antibodies and then washed 4× with PBS. […] After several washes in PBS, cells were covered with 5% 1,4-diazabicyclo[2.2.2]octane (Sigma) in PBS/glycerol 90% and immunofluorescence analyses were performed with a Zeiss LSM-510 confocal microscope.

[4] = tested on: LDLR; assay: LDLR Western blot of HepG2 cells transfected with AnxA2; format: cell-based, human
Protocol: as §1, §2

[5] = target: T1, PCSK9-V5 (Homo sapiens, UniProt Q8NBP7); assay: Far Western blot with PCSK9-V5 conditioned media; format: binding; set-up: made in house; host or cells: CHO-K1 cells (conditioned medium, not purified)
Protocol: Lysates (20 to 30 μg protein), media or purified AnxA2-(His)6 were heated in reducing or non-reducing Laemmli sample buffer, resolved by SDS-PAGE on 8% glycine gels and electro-transferred onto nitrocellulose membranes (GE Healthcare). Following 1 h incubation in 5% skim milk in Tris-Buffered Saline-0.1% Tween (TBST), membranes where incubated with conditioned media of CHO-K1 cells overexpressing either an empty vector (pIRES-V5), PC5A-V5, CHRD-V5, pIRES-D374Y, PCSK9-V5 or its V5-tagged mutants, or incubated with purified AnxA2-(His)6 for 3 h at room temperature. […] For competition experiments, 10 μg of His-tagged PCSK9 or CHRD were added to the PCSK9-V5 media before Far Western blotting. For PCSK9 binding requirements with the ˜33 kDa protein, 1M NaCl, 10 mg/ml heparin, 1M NaCl+10 mg/ml heparin, or 100 mM EDTA were added to the PCSK9-V5 conditioned media used for Far Western blotting.
Wild type human Annexin A2 (AnxA2) (ATCC #MGC-2257) and Annexin A1 (AnxA1) (ATCC #MGC-5095) were purchased from ATCC and subcloned into NheI/SacI digested pIRES2-EGFP vector. An HA epitope ([…]) was fused by PCR mutagenesis at the C-terminus of both AnxA1 and AnxA2. Two-steps PCRs were performed on AnxA2 cDNA to introduce point mutations (N62Q; S64A; K28S+D34N+E36S; R37S+E43H+K47M; 77RRTKK (SEQ ID NO: 26)>AATAK (SEQ ID NO: 27); ^77RRTKK (SEQ ID NO: 26)>AATAA (SEQ ID NO: 28); ^77RRTKKELASALK (SEQ ID NO: 29)>^77AATAAELASALA (SEQ ID NO: 30); 80KKELA (SEQ ID NO: 31)>GKPLD (SEQ ID NO: 32)), or amino acid (aa) deletions (Δ2-24, aa 2-24; ΔR1, aa 37-108; ΔR2, aa 109-192; ΔR3, aa 193-268; ΔR4, aa 269-339; Δ25-36, aa 25-36; Δ37-48, aa 37-48; Δ49-61, aa 49-61; Δ62-75, aa 62-75; Δ37-66, aa 37-66; Δ74-88, aa 74-88; Δ82-88, aa 82-88; Δ89-101, aa 89-101; Δ102-108, aa 102-108) into pIRES2-AnxA2-EGFP vector (see Table 3 above). In addition, using PCR, the AnxA2 segment aa 49-75 was swapped with the corresponding AnxA1 segment aa 58-84 [AnxA1 (aa 58-84)>AnxA2 (aa 49-75)]. Similar swaps were performed for the corresponding AnxA2 sequence with AnxA1 (AnxA1>AnxA2: aa 25-27; aa 28-30; aa 31-33; aa 34-36; aa 37-39; aa 40-42; aa 43-45; aa 46-48; aa 49-75; aa 49-61; aa 62-75). All final cDNA constructs were verified by DNA sequencing.
Target sequence in this assay (Q8NBP7 153-692): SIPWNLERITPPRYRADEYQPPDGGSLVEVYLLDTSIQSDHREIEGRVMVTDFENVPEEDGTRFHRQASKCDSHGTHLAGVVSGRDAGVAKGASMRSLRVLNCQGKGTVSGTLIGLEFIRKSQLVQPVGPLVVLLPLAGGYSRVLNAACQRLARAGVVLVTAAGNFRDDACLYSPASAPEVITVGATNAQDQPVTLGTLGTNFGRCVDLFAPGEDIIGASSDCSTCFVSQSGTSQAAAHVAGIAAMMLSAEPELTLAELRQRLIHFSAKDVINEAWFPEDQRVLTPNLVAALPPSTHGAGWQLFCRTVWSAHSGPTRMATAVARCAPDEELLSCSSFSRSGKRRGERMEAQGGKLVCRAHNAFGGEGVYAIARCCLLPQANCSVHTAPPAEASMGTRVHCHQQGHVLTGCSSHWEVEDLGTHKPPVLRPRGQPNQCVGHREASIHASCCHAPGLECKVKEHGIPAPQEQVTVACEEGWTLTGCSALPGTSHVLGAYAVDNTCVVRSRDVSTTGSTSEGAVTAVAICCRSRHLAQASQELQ
Target sequence in this assay (Q8NBP7 31-152 partner limits assumed): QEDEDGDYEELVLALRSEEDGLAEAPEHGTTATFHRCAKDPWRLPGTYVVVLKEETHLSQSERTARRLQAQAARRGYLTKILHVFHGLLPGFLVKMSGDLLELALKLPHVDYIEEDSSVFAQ

[6] = tested on: AnxA2; assay: shRNA knockdown in HuH7 cells, AnxA2 Western blot; format: cell-based, human; conditions: HuH7, stable or transient transfection, vs control shRNA
Protocol: (§4) To silence human AnxA2, a 29mer pRS-shRNA was used: (sh3, […] (SEQ ID NO: 105)) (Origene). The control pRS-shGFP vector [shCtl] contained a non-effective 29mer shGFP cassette.
as §1, with “Stable transfectants of shRNA-AnxA2 were obtained in HuH7 cells following puromycin selection.” left out
(§5) Western blotting experiments were made on samples that were reduced in Laemmli buffer, heated and resolved on 8% glycine SDS-PAGE gels. […] Quantitation of band intensity was done with the ImageJ™ software version 1.37 (Wayne Rasband, National Institutes of Health, Bethesda, Md.).

[7] = tested on: LDLR; assay: shRNA knockdown in HuH7 cells, LDLR Western blot; format: cell-based, human; conditions: HuH7, stable or transient transfection, vs control shRNA
Protocol: as §4
as §1, with “Stable transfectants of shRNA-AnxA2 were obtained in HuH7 cells following puromycin selection.” left out
as §5

[8] = target: T2, PCSK9 (Homo sapiens, UniProt Q8NBP7); assay: Cell surface PCSK9 immunofluorescence on CHO-K1 cells overexpressing the LDLR; format: cell-based; conditions: 1 μg purified PCSK9, 4° C., 5 or 20 μg purified AnxA2
T2 construct: purchased Bristol-Myers Squibb (gift, not bought); host or cells: added to CHO-K1 cells overexpressing the LDLR
T2 sequence (Q8NBP7 153-692): as the sequence (Q8NBP7 153-692) above
T2 sequence (Q8NBP7 31-152 partner limits assumed): as the sequence (Q8NBP7 31-152 partner limits assumed) above
Protocol: as §3
Finally, addition of 1 μg of purified PCSK9 to CHO-K1 cells overexpressing the LDLR at 4° C. […] Therefore, it was deduced that because of its interaction with the CHRD AnxA2 reduces the level of cell surface PCSK9 likely bound to the LDLR. Without being bound by this hypothesis, PCSK9's reduced binding to LDLR induces a more rapid internalization of PCSK9 into the cell.

[9] = tested on: PCSK9-induced LDLR degradation; assay: LDLR Western blot of HepG2 cells incubated with PCSK9 conditioned media with or without purified AnxA2; format: cell-based, human
Protocol: as §1
as §2, with “Md.). […]” for “Md.).”

[10] = target: T1, PCSK9-V5; assay: Hexa-His pull-down assay; format: binding; set-up: made in house; host or cells: CHO-K1 cells (conditioned medium, not purified); conditions: 20 μg protein immobilized on cobalt chelate resin
Protocol: 20 μg of purified AnxA2-(His)6 or AnxA1-(His)6 or no proteins (for negative control) were immobilized onto a cobalt chelate resin (Thermo Scientific). The resin was then washed several times with 40 mM immidazole and incubated overnight at 4° C. with 800 μl of conditioned media from PCSK9-V5-transfected CHO-K1 cells containing 40 mM immidazole. The resin was then washed several times with immidazole (40 mM), heated in reducing Laemmli sample buffer and centrifuged. Supernatants were analyzed by Western blot as described above using the anti-V5-HRP or anti-His-HRP antibodies.
Target sequence in this assay (Q8NBP7 153-692): as the sequence (Q8NBP7 153-692) above
Target sequence in this assay (Q8NBP7 31-152 partner limits assumed): as the sequence (Q8NBP7 31-152 partner limits assumed) above

[11] = target: T1, PCSK9-V5; assay: Co-immunoprecipitation in co-transfected CHO-K1 cells; format: binding; set-up: expressed in transfected cells; host or cells: CHO-K1 cells co-transfected with AnxA1-HA, AnxA2-HA or AnxA2-HA and p11; conditions: co-expression in CHO-K1 cells
Protocol: For immunoprecipitation cell lysates were incubated overnight at 4° C. with anti-V5-agarose beads (Sigma) and washed 5 times with cold lysis buffer.
Target sequence in this assay (Q8NBP7 153-692): as the sequence (Q8NBP7 153-692) above

AnxA2: wild type human Annexin A2 isoform 2, expressed in cells by transfection
levels of endogenous LDLR [1]: None of these treatments affected the levels of endogenous LDLR
LDLR level [2]: returned to that of the control
labelling intensity of cell surface LDLR ([3]; HepG2, AnxA2 alone or together with p11, vs pIRES control): strong increase
LDLR-lowering effect of WT-PCSK9 or PCSK9-D374Y ([3]; HepG2, co-expression with AnxA2): prevented their LDLR-lowering effect
increase of LDLR level ([4]; HepG2, AnxA2 co-transfected with p11): ~90%
increase of LDLR level ([4]; HepG2 transfected with AnxA2 alone): ~40%
PCSK9-V5 binding by Far Western blot ([5]; lysates of cells overexpressing the construct): specifically binds

AnxA2-shRNA: 29mer pRS-shRNA silencing human AnxA2, GCATCAGCACTGAAGTCAGCCTTATCTGG (SEQ ID NO: 105)
levels of endogenous LDLR [1]: None of these treatments affected the levels of endogenous LDLR
knockdown of AnxA2 [6]: 60-70%
reduction of the LDLR levels [7]: 40-70%

AnxA2-(His)6: purified His-tagged Annexin A2 purchased from EMD biosciences
cell surface localization of PCSK9 [8]: reduced
level of LDLR ([9]; HepG2, media of non-transfected cells, endogenous PCSK9): increased the level of LDLR
PCSK9-enhanced LDLR degradation ([9]; HepG2, ~20 h, PCSK9 conditioned media plus 5 ug/ml purified AnxA2-(His)6, ~30% without AnxA2): ~10%
PCSK9-V5 bound in pull-down [10]: bound PCSK9 and its furin cleaved form (PCSK9-Δ218)
PCSK9 binding to purified protein by Far Western blot ([5]; reducing and non-reducing conditions): binds in a dose-dependant manner

B1: AnxA1: human Annexin A1, closely related family member used as control (protein, UniProt P04083 2-346, looked up)
Annexin A1: AMVSEFLKQAWFIENEEQEYVQTVKSSKGGPGSAVSPYPTFNPSSDVAALHKAIMVKGVDEATIIDILTKRNNAQRQQIKAAYLQETGKPLDETLKKALTGHLEEVVLALLKTPAQFDADELRAAMKGLGTDEDTLIEILASRTNKEIRDINRVYREELKRDLAKDITSDTSGDFRNALLSLAKGDRSEDFGVNEDLADSDARALYEAGERRKGTDVNVFNTILTTRSYPQLRRVFQKYTKYSKHDMNKVLDLELKGDIEKCLTAIVKCATSKPAFFAEKLHQAMKGVGTRHKALIRIMVSRSEIDMNDIKAFYQKMYGISLCQAILDETKGDYEKILVALCGGN
levels of endogenous LDLR [1]: None of these treatments affected the levels of endogenous LDLR
co-immunoprecipitation with PCSK9-V5 [11]: not
